Test results as given in patent publication US7902254B1, “Method for treating conditions mediated by PPAR using macelignan” (Newtree Co., Ltd., priority 2005, dated 2011).

Legend:
human PPARα = target: T1, human PPARα (Homo sapiens, UniProt Q07869); assay: PPARα activation, PPRE-controlled luciferase reporter in transfected COS-7 cells; assay type: cell-based; conditions: 25 μM, 24 hours, control 0.01% DMSO
T1 construct: expressed in transfected cells; host or cells: COS-7 monkey kidney cells (ATCC CRL-1651)
T1 sequence (Q07869 192-468 limits assumed): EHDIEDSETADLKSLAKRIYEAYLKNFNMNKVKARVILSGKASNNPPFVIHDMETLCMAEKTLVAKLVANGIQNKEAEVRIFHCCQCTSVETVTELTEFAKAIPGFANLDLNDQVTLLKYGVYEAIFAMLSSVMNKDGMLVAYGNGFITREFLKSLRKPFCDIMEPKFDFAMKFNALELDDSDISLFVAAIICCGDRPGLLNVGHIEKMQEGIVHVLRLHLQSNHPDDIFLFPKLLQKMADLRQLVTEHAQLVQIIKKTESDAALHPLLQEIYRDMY
Description: To investigate whether macelignan acts as a ligand of PPAR or not, it was tested according to known method (Cell, 68: 879-887, 1992; J. Biol. Chem., 272: 25252-25259, 1997) using a plasmid expressing PPAR and a vector having PPRE-controlled luciferase genes.
Activation of luciferase expression was measured by transfecting COS-7 monkey kidney cells (ATCC CRL-1651) with the PPARα plasmid and pFR-luciferase vector (Stratagene, USA), and then by treating the transfected cells with macelignan isolated from Example 1 for 24 hours. The PPARα plasmid was obtained by isolating polynucleotide encoding the amino acid sequence of amino acids […] (i.e. PPARα ligand-bound domain of the total amino acid sequence of human PPARα (Genbank Acession No. S74349)) with the primers of SEQ ID NO: 1 ([…]) and SEQ ID NO: 2 (TGGGGTACCTGGCTGAT) by RT-PCR. Then, the polynucleotide was cloned between the restriction enzyme sites of BamHI and KpnI of pFA vector (Stratagene, USA). Herein, mRNA used as the template in RT-PCR was obtained by separating the total RNA in cultured Hep G2 (ATCC HB-8065) human liver cells by using TRIZOL (Invitrogen, USA). RT-PCR was performed by synthesizing cDNA using reverse transcriptase at 42° C. for 60 minutes, and 30 cycles of 1 minute at 95° C., 30 seconds at 54° C. and 2 minutes at 72° C. using Taq polymerase. At this time, the test groups treated with different concentrations (1, 5, 10 and 25 μM) of macelignan according to the present invention were compared to the control treated with 0.01% DMSO, and to the groups treated with different concentrations (1, 5, 10 and 25 μM) of Wy-14643 (Sigma, USA), a compound known as a PPARα ligand.

[1] = test system: obesity/diabetes mice (db/db mice); assay: Effect upon hyperlipidemia and cardiovascular diseases in obesity/diabetes mouse model; assay type: in vivo; conditions: 10 mg/kg oral, 14 days
Description: To investigate effects of macelignan upon the treatment of hyperlipidemia and cardiovascular diseases, seven mice of 10 week-aged obesity/diabetes mice (db/db mice) were used per test group. To the test groups, macelignan suspended in 0.25% carboxymethyl cellulose was orally administered in an administration dose of 5 mg/kg (body weight), 10 mg/kg (body weight) and 25 mg/kg (body weight), once per day at a predetermined time, for 14 days. As a control, 0.25% carboxymethyl cellulose was orally administered alone to normal mice in the same dose as administered to the test group. As another control, 0.25% carboxymethyl cellulose was orally administered alone to obesity/diabetes mice in the same dose as administered to the test group. As still another control, 10 mg/kg (body weight) of troglitazone was orally administered. Fourteen days after the administration, triglyceride concentration in blood (triglyceride measuring kit, Wako, Japan), free fatty acid concentration in blood (free fatty acid measuring kit, Wako, Japan), total cholesterol content in blood (ASAN T-CHO-Lq Reagents, Asan Pharmaceutical Co. Ltd., Korea), HDL-cholesterol content in blood (ASAN HDL-Cholesterol, Asan Pharmaceutical Co. Ltd., Korea), IL-6 content in blood (IL-6 Quantikine ELISA, R&D systems, USA) and TNF-α content in blood were measured for the test groups and the controls.

[2] = test system: obesity/diabetes mice (db/db mice); assay: Anti-diabetes effect in obesity/diabetes mouse model; assay type: in vivo; conditions: 10 mg/kg oral; for OGTT blood sugar: 12th day
Excerpt: A mouse (db/db mouse; The Jackson Laboratory, USA) used in the present invention as an obesity/diabetes model is deficient in leptin genes and cannot control its appetite, and thus takes an excessive amount of food continuously. […] Thus, it can be a typical model of obesity and metabolic diseases. Additionally, it has a higher blood sugar level and can be a typical model of non-insulin-dependent diabetes mellitus. To investigate the effect of preventing and treating diabetes of macelignan, seven mice of 10 week-aged obesity/diabetes mice (db/db mice) were used per test group. To the test groups, macelignan suspended in 0.25% carboxymethyl cellulose was orally administered with the dose of 5 mg/kg (body weight), 10 mg/kg (body weight) and 25 mg/kg (body weight), once per day at a predetermined time, for 14 days. As a control, 0.25% carboxymethyl cellulose was orally administered alone to normal mice in the same dose as administered to the test group. As another control, 0.25% carboxymethyl cellulose was orally administered alone to obesity/diabetes mice in the same dose as administered to the test group. As still another control, 10 mg/kg (body weight) of troglitazone was orally administered. Blood sugar levels of the obesity/diabetes mice were determined from six days before the administration, once per three days. On the 12th day after the oral administration, the test group and the controls were subjected to the Oral Glucose Tolerance Test (OGTT). For this test, obesity/diabetes mice in the test group and the controls were fasted for at least 18 hours, glucose was orally administered to the mice in a dose of 3 g/kg (body weight), and then variations in the blood sugar were measured at 0 minutes, 30 minutes, 60 minutes and 120 minutes after the glucose administration. Additionally, on the 14th day of the oral administration, the final blood sugar level, insulin content in blood (mouse insulin ELISA Kit, Linco Research, o. EZRMI-BK, USA) and adiponectin content in blood (Adiponectin Quantikine ELISA Kit, R&D systems, No. MRP300, USA) were analyzed.

Question: For Cc1cccc(Nc2cc(Cl)nc(SCC(=O)O)n2)c1C [Wy-14643, reference compound], which “luciferase activity higher than the control (PPARα)” value (human PPARα) is on record?
Answer: The value was “about 16 times”.

Question: How did the “Free fatty acid in blood” value [1] turn out when Cc1c(C)c2c(c(C)c1O)CCC(C)(COc1ccc(CC3SC(=O)NC3=O)cc1)O2 (stereo not shown) [troglitazone, reference compound] was run?
Answer: The value was 1.22 ± 0.27 mEq/l.

Question: And the HDL-cholesterol in blood [1]?
Answer: Its HDL-cholesterol in blood is 43.9 ± 6.34 mg/dL.

Question: And the IL-6 in blood [1]?
Answer: The IL-6 in blood was 10.24 ± 3.60 pg/mL.

Question: And the TNF-α in blood [1]?
Answer: The TNF-α in blood was 30.49 ± 13.18 pg/mL.

Question: And the Total cholesterol in blood [1]?
Answer: Its Total cholesterol in blood is 134 ± 34.9 mg/dL.

Question: What about the Triglyceride in blood [1] of the same compound?
Answer: The Triglyceride in blood was 112.57 ± 57.47 mg/dL.

Question: And the OGTT blood sugar ([2]; 0 min. after glucose 3 g/kg)?
Answer: Its OGTT blood sugar is 303.43 ± 37.83 mg/dL.

Question: And the “Adiponectin concentration in blood” value ([2]; 14th day, db/db mice)?
Answer: Its value is 6682.33 ± 250.05 ng/mL.

Question: What about the “Insulin concentration in blood” value ([2]; 14th day, db/db mice) of the same compound?
Answer: Its value is 18.57 ± 5.88 ng/mL.

Question: And the OGTT blood sugar ([2]; 30 mins. after glucose 3 g/kg)?
Answer: The OGTT blood sugar was 610.57 ± 76.21 mg/dL.

Question: And the OGTT blood sugar ([2]; 60 mins. after glucose 3 g/kg)?
Answer: The OGTT blood sugar was 523.70 ± 17.10 mg/dL.

Question: And the OGTT blood sugar ([2]; 120 mins. after glucose 3 g/kg)?
Answer: The OGTT blood sugar was 456.41 ± 54.69 mg/dL.
